Data on 2 compounds can be found in publication PMC4037324 (Drug metabolism letters, 2012).

SMILES strings stand for the structures.

Data set [1] has as its target T1, cytochrome P450 2D6 (CYP2D6) (Homo sapiens, UniProt P10635). In words: NADPH-dependent inactivation of bufuralol […]'-hydroxylation in CYP2D6 Supersomes. It counts as cell-based.
Target sequence in this assay (P16435 2-677): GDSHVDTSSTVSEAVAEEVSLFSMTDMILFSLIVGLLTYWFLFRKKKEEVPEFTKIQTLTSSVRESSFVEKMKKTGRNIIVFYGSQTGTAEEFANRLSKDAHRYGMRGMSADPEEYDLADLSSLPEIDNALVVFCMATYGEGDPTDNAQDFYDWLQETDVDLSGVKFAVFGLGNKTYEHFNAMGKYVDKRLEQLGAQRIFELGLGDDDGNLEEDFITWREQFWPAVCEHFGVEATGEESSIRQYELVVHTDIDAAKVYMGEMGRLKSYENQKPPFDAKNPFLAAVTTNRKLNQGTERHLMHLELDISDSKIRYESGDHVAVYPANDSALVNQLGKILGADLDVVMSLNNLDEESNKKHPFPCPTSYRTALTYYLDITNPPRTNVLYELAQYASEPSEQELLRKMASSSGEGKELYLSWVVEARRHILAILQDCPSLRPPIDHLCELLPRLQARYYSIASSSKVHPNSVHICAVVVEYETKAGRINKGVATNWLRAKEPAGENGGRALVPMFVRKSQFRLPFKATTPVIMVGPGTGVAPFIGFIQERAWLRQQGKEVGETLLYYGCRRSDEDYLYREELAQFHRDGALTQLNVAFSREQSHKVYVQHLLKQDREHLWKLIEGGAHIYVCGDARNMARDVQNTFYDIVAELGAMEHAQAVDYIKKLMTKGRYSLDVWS
Target sequence in this assay (P10635 whole entry): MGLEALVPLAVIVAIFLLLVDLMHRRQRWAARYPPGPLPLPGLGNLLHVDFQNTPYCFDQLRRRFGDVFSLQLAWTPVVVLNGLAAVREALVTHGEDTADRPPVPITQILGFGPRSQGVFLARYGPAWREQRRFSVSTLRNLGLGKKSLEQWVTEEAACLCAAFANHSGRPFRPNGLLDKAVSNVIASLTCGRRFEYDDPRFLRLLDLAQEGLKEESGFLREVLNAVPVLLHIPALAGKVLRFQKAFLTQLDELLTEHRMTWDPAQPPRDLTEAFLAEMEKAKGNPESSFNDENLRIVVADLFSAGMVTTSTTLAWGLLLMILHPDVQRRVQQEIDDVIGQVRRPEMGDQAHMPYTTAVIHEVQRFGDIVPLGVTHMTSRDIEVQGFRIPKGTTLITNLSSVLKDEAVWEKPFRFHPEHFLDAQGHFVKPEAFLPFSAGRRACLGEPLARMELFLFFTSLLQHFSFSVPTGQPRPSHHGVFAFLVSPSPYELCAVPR
Data set [2] concerns the target T1, cytochrome P450 2D6 (CYP2D6). Briefly: UV-vis spectral binding titration.
Target sequence in this assay (P10635 whole entry): as above

Consider `CNC(C)Cc1ccc2c(c1)OCO2` (centres unmarked) [MDMA], for which the partition ratio in data set [1] turned out to be 91. For the compound `CCc1nc(C)c(CN2CCN(c3cc(C(F)(F)F)ccn3)CC2)[nH]1` [EMTPP], binding in data set [2] was put at a Kd of 29.8 ± 3.04 µM.
